Measured values published in PubChem BioAssay AID180 (DTP/NCI, 2004).
Values joined by “and” are separate entries in the source; they are usually repeats but may differ in a detail not shown here. Identical values can stand only once.

Tested on: BDF1 mice, Adenocarcinoma 755 s.c., tumor weight T/C
Assay: NCI In Vivo Anticancer Drug Screen. Data for tumor model Adenocarcinoma 755 (subcutaneous) in B6D2F1 (BDF1) mice
Conditions: endpoint: mean tumor weight, schedule: Q01DX011 (ip), higher = larger tumour
Method in brief: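 Tumor-bearing mice receive test compound while controls get vehicle alone. Antitumor effect is scored from survival or tumor dimensions as a T/C quotient.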

[1] = dose: 0.3 mg/kg/injection, vehicle: carboxymethylcellulose (CMC)

SMILES: Nc1ccccc1N
- T/C (dose: 31.25 mg/kg/injection, vehicle: methylcellulose (MC)): 80 % of control
- T/C (dose: 62.5 mg/kg/injection, vehicle: methylcellulose (MC)): 40 % of control
- T/C (dose: 125.0 mg/kg/injection, vehicle: methylcellulose (MC)): 55 % of control

SMILES: CCCCn1cnc2c(SCc3ccc(F)cc3)nc(N)nc21
- T/C (dose: 3.1 mg/kg/injection, vehicle: methylcellulose (MC)): 59 % of control
- T/C (dose: 6.25 mg/kg/injection, vehicle: methylcellulose (MC)): 47 % of control
- T/C (dose: 12.5 mg/kg/injection, vehicle: methylcellulose (MC)): 22 % of control
- T/C (dose: 25.0 mg/kg/injection, vehicle: methylcellulose (MC)): 10 % of control and 14 % of control
- T/C (dose: 50.0 mg/kg/injection, vehicle: methylcellulose (MC)): 2 % of control

SMILES: CSc1nc(C)c(Br)c(Sc2nc(N)nc3nc[nH]c23)n1
- T/C [1]: 106 % of control
- T/C (dose: 0.7 mg/kg/injection, vehicle: carboxymethylcellulose (CMC)): 117 % of control
- T/C (dose: 6.0 mg/kg/injection, vehicle: carboxymethylcellulose (CMC)): 42 % of control
- T/C (dose: 12.0 mg/kg/injection, vehicle: carboxymethylcellulose (CMC)): 28 % of control
- T/C (dose: 24.0 mg/kg/injection, vehicle: carboxymethylcellulose (CMC)): 6 % of control

SMILES: CCCCCCCCCCCCCCCCCCNC
- T/C (dose: 14.0 mg/kg/injection, vehicle: carboxymethylcellulose (CMC)): 77 % of control

SMILES: Cc1ccccc1N(C=O)c1ccccc1C
- T/C (dose: 250.0 mg/kg/injection, vehicle: methylcellulose (MC)): 108 % of control
- T/C (dose: 500.0 mg/kg/injection, vehicle: methylcellulose (MC)): 120 % of control
- T/C (dose: 1000.0 mg/kg/injection, vehicle: methylcellulose (MC)): 110 % of control

SMILES: Nc1cccc2c(=O)[nH][nH]c(=O)c12
- T/C (dose: 62.5 mg/kg/injection, vehicle: water): 71 % of control
- T/C (dose: 125.0 mg/kg/injection, vehicle: water): 82 % of control
- T/C (dose: 250.0 mg/kg/injection, vehicle: water): 59 % of control

SMILES: S=P(N1CC1)(N1CC1)N1CC1
- T/C [1]: 60 % of control
- T/C (dose: 0.48 mg/kg/injection, vehicle: carboxymethylcellulose (CMC)): 45 % of control
- T/C (dose: 0.58 mg/kg/injection, vehicle: carboxymethylcellulose (CMC)): 91 % of control
- T/C (dose: 0.6 mg/kg/injection, vehicle: carboxymethylcellulose (CMC)): 53 % of control and 62 % of control (2×)
- T/C (dose: 0.65 mg/kg/injection, vehicle: carboxymethylcellulose (CMC)): 90 % of control
- T/C (dose: 0.75 mg/kg/injection, vehicle: methylcellulose (MC)): 62 % of control
- T/C (dose: 0.8 mg/kg/injection, vehicle: carboxymethylcellulose (CMC)): 53 % of control and 77 % of control
- T/C (dose: 1.3 mg/kg/injection, vehicle: carboxymethylcellulose (CMC)): 54 % of control
- T/C (dose: 1.45 mg/kg/injection, vehicle: carboxymethylcellulose (CMC)): 89 % of control and 99 % of control
- T/C (dose: 1.5 mg/kg/injection, vehicle: methylcellulose (MC)): 37 % of control
- T/C (dose: 2.4 mg/kg/injection, vehicle: carboxymethylcellulose (CMC)): 14 % of control and 29 % of control and 38 % of control
- T/C (dose: 2.6 mg/kg/injection, vehicle: carboxymethylcellulose (CMC)): 35 % of control
- T/C (dose: 2.9 mg/kg/injection, vehicle: carboxymethylcellulose (CMC)): 28 % of control and 52 % of control
- T/C (dose: 3.0 mg/kg/injection, vehicle: methylcellulose (MC)): 14 % of control
- T/C (dose: 5.2 mg/kg/injection, vehicle: carboxymethylcellulose (CMC)): 7 % of control and 9 % of control
- T/C (dose: 6.0 mg/kg/injection, vehicle: methylcellulose (MC)): 6 % of control
- T/C (dose: 725.0 micrograms/kg/injection, vehicle: carboxymethylcellulose (CMC)): 83 % of control
- T/C (dose: 1450.0 micrograms/kg/injection, vehicle: carboxymethylcellulose (CMC)): 30 % of control
- T/C (dose: 2900.0 micrograms/kg/injection, vehicle: carboxymethylcellulose (CMC)): 36 % of control
- T/C (dose: 5800.0 micrograms/kg/injection, vehicle: carboxymethylcellulose (CMC)): 26 % of control
